Experimental data as given in patent US20240197681A1, “METHODS AND COMPOSITIONS RELATING TO PS[…] SEROTONIN RECEPTOR MODULATORS” (Terran Biosciences Inc., priority 2021, published 2024).
Entries after “also recorded” stand apart in the source; their conditions may differ. Like-named read-outs stand apart in the source and are kept apart here.

Key:
[1] = tested on: hippocampal area CA1 in anesthetized mice; assay: In vivo electrophysiology: local field potentials in hippocampal CA1; settings: for effect of ketanserin pretreatment on psilocybin-induced reduction in low frequency (delta) LFP power: ketanserin 2 mg/kg i.p. 60 minutes before psilocybin 10 mg/kg i.p., 15-25 minutes following psilocybin injection
[2] = tested on: Healthy Volunteers; assay: Resting-state fMRI: global brain connectivity (GBC) and functional connectivity (FC); assay type: in vivo, humans; settings: ketanserin 60 minutes before LSD; for LSD induced neural changes at 300 minutes in the presence of ketanserin: absence of psychotomimetic effects
Source text: The used dataset was acquired in the course of a registered clinical trial (ClinicalTrials.gov Identifier: NCT02451072) entitled: The Role of 5-HT2A Receptor in the Perception of Self and Personal Meaning in Healthy Volunteers. Participants, study design, neuroimaging data acquisition, preprocessing and global brain connectivity calculation are detailed in Preller et al. (eLife. 2018 Oct. 25; 7:e35082. Changes in global and thalamic brain connectivity in LSD-induced altered states of consciousness are attributable to the 5-HT2A receptor, PMID: 30355445). The relevant methodological sections pertinent to the current analysis are summarized below.
24 subjects were included in the dataset (n=19 males; mean age=25.0 years, standard deviation=3.6 years, range=20-34 years). All included subjects were healthy, as confirmed by medical history, physical examination, blood analysis, electrocardiogra Mini-International Neuropsychiatric Interview (MINI-SCID) [Sheehan et al., 1998], the DSM-IV self-rating questionnaire for Axis-II personality disorders (SCIS-II) [Fydrich et al., 1997], and the Hopkins Symptom Checklist (SCL-90R) [Franke, 1995]. Subjects were required to abstain from prescription or illicit drugs, alcohol, smoking and caffeine.
The study was designed as a fully double-blind, randomized, within-subject cross-over study. During a session, subjects were pretreated with either a placebo or the 5-HT2A receptor antagonist Ketanserin 60 minutes before being treated with either a placebo or LSD. Thus, each subject participated in 3 sessions in which they underwent each of the following pretreatment · treatment conditions in a randomized, balanced order: • a) Placebo+placebo • b) Placebo+LSD • c) Ketanserin+LSD Two resting-state scans were performed, one 75 and the other 300 minutes after treatment. To assess participants' experience, a retrospective self-report questionnaire (5D-ASC, [Dittrich, 1998]) was administered 720 minutes after treatment, and a shorter version of the 5D-ASC 180, 250 and 360 minutes after treatment. […]

[3] = tested on: Healthy Volunteers; settings: cited from earlier work; for subjective (psychotomimetic) LSD effects versus placebo at 360 minutes: 5D-ASC short version
[4] = tested on: C57Bl/6J mice; assay: Sucrose preference test (SPT) after chronic multimodal stress (CMMS); assay type: in vivo; settings: stress-susceptible male mice after 10-14 days CMMS; single drug (psilocybin 1 mg/kg i.p. or ketanserin 2 mg/kg i.p.) plus vehicle injection; 24-48 hours after injection
[5] = tested on: C57Bl/6J mice; assay: Female urine sniff test (FUST) after chronic multimodal stress (CMMS); assay type: in vivo; settings: stress-susceptible male mice after 10-14 days CMMS; single drug (psilocybin 1 mg/kg i.p. or ketanserin 2 mg/kg i.p.) plus vehicle injection; 24-48 hours after injection
[6] = molecular target: T1, 5-HT2A receptor (Mus musculus, UniProt P35363); assay: Head twitch response (HTR); assay type: in vivo, mice; settings: ketanserin 2 mg/kg 60 minutes prior to psilocybin 1 mg/kg, 15 minutes following injection
T1 construct: from tissue; host or cells: live mice (whole animal, brain receptors)
T1 sequence (P35363 whole entry): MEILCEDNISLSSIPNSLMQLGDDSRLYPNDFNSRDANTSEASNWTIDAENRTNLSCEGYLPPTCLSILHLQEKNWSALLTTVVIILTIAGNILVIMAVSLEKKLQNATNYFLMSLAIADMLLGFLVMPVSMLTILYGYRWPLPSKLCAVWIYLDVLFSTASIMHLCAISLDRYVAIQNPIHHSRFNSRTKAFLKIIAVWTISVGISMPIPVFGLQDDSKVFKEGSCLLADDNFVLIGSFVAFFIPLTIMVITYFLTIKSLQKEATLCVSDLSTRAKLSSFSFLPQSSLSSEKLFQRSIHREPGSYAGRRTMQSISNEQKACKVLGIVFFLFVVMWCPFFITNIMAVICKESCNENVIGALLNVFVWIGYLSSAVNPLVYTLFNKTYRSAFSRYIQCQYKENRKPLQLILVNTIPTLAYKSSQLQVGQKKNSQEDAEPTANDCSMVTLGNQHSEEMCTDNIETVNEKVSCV

[7] = tested on: TA-CA1 synapses; assay: In vitro electrophysiology: AMPA:NMDA ratios of TA-CA1 fEPSPs in hippocampal slices from treated mice; assay type: in vivo; settings: ketanserin 2 mg/kg 60 minutes prior to psilocybin 1 mg/kg; CMMS mice
Experimental: Standard methods were used to prepare […] hippocampal slices. Briefly, mice were euthanized via exposure to isoflurane followed by decapitation. Brains were excised and the hippocampus was quickly dissected from the brain and sectioned on a Leica VT1200 series vibratome in ice-cold artificial cerebrospinal fluid (ACSF) bubbled with 95% O2/5% CO2. The ACSF contained: 124 mM NaCl, 3 mM KCl, 1.25 mM NaH2PO4, 1.5 mM MgSO4, 2.5 mM CaCl2, 26 mM NaHCO3, and 10 mM glucose. Slices were allowed to recover for a minimum of 60 minutes at room temperature in ACSF in a humidified interface chamber before recording.
Use of extracellular recording, rather than whole-cell recording, was chosen for quantification of AMPA:NMDA ratios because of the complications of stress-induced changes in dendritic structure and their electrotonic influence on recordings of distal TA-CAI synapses. For quantification of AMPA:NMDA ratios, ACSF was prepared as stated, but without MgSO4, to leave NMDA channels unblocked. […] Five fEPSPs were again collected at the same stimulation intensities recorded prior to DNQX. […]
AMPA:NMDA ratios of the TA-CAI fEPSPs were quantified as described previously (A. J. Kallarackal et al., 2013 J. Neuroscience. 33, 15669-15764) in order to provide a measure of synaptic strength across slices from different mice. […]

[8] = tested on: C57Bl/6J mice; assay: Locomotion in open field arena; settings: ketanserin 2 mg/kg 60 minutes prior to psilocybin 5 mg/kg

| Structure (SMILES) | time of peak effect on low frequency LFP activity following psilocybin injection ([1]; psilocybin 10 mg/kg) [min] | duration of decrease of delta band power ([1]; psilocybin 10 mg/kg, i.p.) [min] | time to decrease of delta band power ([1]; psilocybin 10 mg/kg, i.p.) [min] | LSD induced neural changes at 300 minutes in the presence of ketanserin [2] | subjective (psychotomimetic) LSD effects versus placebo at 360 minutes ([3]; FIG. 20 reprinted from Preller 2018) | subjective (psychotomimetic) LSD effects versus placebo at 360 minutes ([3]; FIG. 20 reprinted from Preller 2018, listed as Pla+LSD) | self-reported altered states of consciousness (5D-ASC short version) ([3]; 180, 250 and 360 minutes after second drug administration, FIG. 20 reprinted from Preller 2018) | sucrose preference (SP) compared to values after CMMS [4] | female urine preference compared to values after CMMS [5] | effect of ketanserin pretreatment on psilocybin-induced head-twitching (5-HT2A receptor activation) [6] | effect of ketanserin pretreatment on psilocybin-induced head-twitching (5-HT2A receptor activation) ([6]; listed as Ketanserin) | effect of ketanserin pretreatment on the ability of psilocybin to restore AMPA:NMDA ratios [7] | effect of ketanserin pretreatment on LSD-induced neural changes at 75 minutes [2] | effect of ketanserin pretreatment on psychotomimetic (behavioral) effects of LSD ([3]; ketanserin 60 minutes before LSD, all timepoints) | effect of ketanserin pretreatment on locomotion [8] | effect of ketanserin pretreatment on psilocybin-induced reduction in low frequency (delta) LFP power [1] | effect of ketanserin pretreatment on psilocybin-induced reduction in low frequency (delta) LFP power ([1]; listed as Ketanserin) |
| --- | --- | --- | --- | --- | --- | --- | --- | --- | --- | --- | --- | --- | --- | --- | --- | --- | --- |
| CN(C)CCc1c[nH]c2cccc(OP(=O)(O)O)c12 [psilocybin] | 15 to 25 | > 60 | ≤ 15 |  |  |  |  |  |  |  |  |  |  |  |  |  |  |
| CCN(CC)C(=O)[C@@H]1C=C2c3cccc4[nH]cc(c34)C[C@H]2N(C)C1 [LSD, lysergic acid diethylamide] |  |  |  | reached near full effect within 300 minutes | still intense and high above placebo | still significantly elevated from placebo | substantial self-reported altered states of consciousness |  |  |  |  |  |  |  |  |  |  |
| O=C(c1ccc(F)cc1)C1CCN(CCn2c(=O)[nH]c3ccccc3c2=O)CC1 [ketanserin] |  |  |  | did not block the neural changes induced by LSD |  |  |  | nor ketanserin alone (p=0.87; n=6) had a significant effect on SP; also recorded: no significant effect | nor ketanserin alone (p=0.072) had a significant effect on female urine preference; also recorded: no significant effect | prevents head-twitching; also recorded: sufficiently blocked 5-HT2A receptors; also recorded: sufficiently attenuated the activation of 5-HT2ARs | block 5-HT2AR-dependent head twitching | did not impair | many of the immediate neural changes induced by LSD at 75 minutes | blocked all of the psychotomimetic effects of LSD; also recorded: fully blocked the behavioral effects of LSD | enhances hypolocomotive effects of psilocybin; also recorded: induced hypo-locomotion | inhibited; also recorded: significantly attenuated | greatly attenuated; also recorded: block |
